Values after ≈ are worked out from the molar mass of the structure shown. Like-named read-outs stand apart in the source and are kept apart here.
Assays:
[1] = tested on: L. donovani promastigotes; assay: Leishmanicidal assay (growth reversion after wash-out); assay type: cell-based, Leishmania donovani; details: 1 μM, 72 h treatment, then 72 h in fresh media
Procedure: To confirm the leishmanicidal effect of compounds 9, 12, 14, and 18, treated and untreated parasites (1 μM) after 72 h of incubation, were washed two times with fresh incomplete medium and finally resuspended in complete media, transferred back to 22°C and allowed to grow for 72 h. The viability of the parasites was determined microscopically (Afrin et al., [2001]).

[2] = tested on: L. donovani intracellular amastigotes; assay: Anti-amastigote activity in ex vivo macrophage model; assay type: cell-based, Leishmania donovani; details: 48 h; for Clearance of intracellular amastigotes in Giemsa-stained micrographs: 1.56 μM; for IC50: Leishmania donovani, Peritoneal macrophage, in Mus musculus, read-out: L. donovani amastigotes IC50 ± SEM
Text: BALB/c mice was used for the isolation of peritoneal macrophages in the ex vivo anti-amastigote study after prior approval from the Jamia Hamdard Animal Ethics Committee (JHAEC). JHAEC is registered under the Committee for the purpose of supervision and control of experiments on animals (CPCSEA). Mice were individually housed in the Central Animal House of Jamia Hamdard as per internationally accepted norms. The mice were kept in standard size polycarbonate cages under controlled conditions of temperature (23 ± 1°C), humidity (55 ± 10%), 12:12 h of light and dark cycle and fed with standard pellet diet and filtered water (ad libitum).
Macrophages from the peritonial cavity of BALB/c mice (1 × 10^6 cellsml^−1) were allowed to adhere to round glass coverslips in a 24 well tissue culture plate and incubated for 12 h at 37°C in a CO2 incubator. After removal of the non-adherent macrophages, the cells were infected with stationary phase promastigotes using a cell to parasite ratio of 1:10 and incubated at 37°C for 24 h. The non-phagocytosed parasites were removed by washing, and the infected macrophages incubated with the test compounds 9, 12, 14, and 18 (0–25 μM) for an additional 48 h. The coverslips were fixed in methanol and giemsa-stained for microscopic evaluation (100X) of amastigote infectivity. Number of amastigotes per 100 macrophages were enumerated and the concentration that decreased amastigotes by 50% (IC50) was determined (Wong et al., [2012]; Islamuddin et al., [2014a]).
In vitro antileishmanial activity was expressed as IC50 by linear regression analysis. Values are mean ± SE of samples in triplicate from at least three independent experiments. Statistical analysis was performed using ANOVA followed by Dunnett's test. ^*P < 0.05, ^**P < 0.01 and ^***P < 0.001 compared with the untreated control group were considered significant.

Aspergillus species = assay: Broth microdilution, pooled statement for Aspergillus species; assay type: cell-based; details: range over A. fumigatus and A. niger
Text: (§1) One reference each of the following species was used for their in vitro susceptibility to β-nitrostyrene in this study: Staphylococcus aureus ATCC 29213, Staphylococcus epidermidis ATCC 14990, Escherichia coli ATCC 25922, Pseudomonas aeruginosa ATCC 27853, Candida albicans ATCC 90028, Candida glabrata ATCC 90030, Aspergillus fumigatus ATCC 16424 and Aspergillus niger ATCC 16404. These strains were procured from the American Type Culture Collection (ATCC, Manassas, VA, USA).
(§2) The antibacterial and antifungal activities of the β-nitrostyrenes were performed by broth microdilution methods as per the guidelines of Clinical and Laboratory Standard Institute (Wayne, [1998], [2008a],[b],[c]) by using Mueller-Hinton broth (MHB; Becton-Dickinson, Cockeysville, MD, USA) supplemented with calcium (25 mg/L) and magnesium (12.5 mg/L) for bacterial strains while as RPMI 1640 medium with L-glutamine and without sodium bicarbonate, buffered to pH 7.0 with 0.165 M 3-(N-morpholino) propanesulfonic acid (MOPS; both from Sigma) was used for fungal strains. […] The plates were read visually and the minimum inhibitory concentration (MIC) was defined as the lowest concentration of test sample that prevented visible growth with respect to the growth control.

[3] = tested on: gram-positive bacteria (S. aureus and S. epidermidis); assay: Broth microdilution, pooled statement for gram-positive bacteria; assay type: cell-based; details: Staphylococcus aureus; range over both strains
Text: as §1, §2

Candida species = assay: Broth microdilution, pooled statement for Candida species; assay type: cell-based; details: range over C. albicans and C. glabrata
Text: as §1, §2

[4] = intracellular amastigotes in BALB/c peritoneal macrophages

CC/C(=C\c1ccc(O)cc1)[N+](=O)[O-] [Compound 18, 4-((E)-2-nitrobut-1-enyl) phenol]
Leishmanicidal effect (reversion after wash and 72 h in fresh media) [1]: did not revert back to their normal morphology and still appeared dead | Clearance of intracellular amastigotes in Giemsa-stained micrographs [2]: almost total clearance | IC50 [2, 4]: 61.6 ± 8.02 nM

CC/C(=C\c1cccc([N+](=O)[O-])c1)[N+](=O)[O-] [Compound 12, 1-nitro-3-((E)-2-nitrobut-1-enyl) benzene]
MIC (Aspergillus species): 0.5 to 1 µg/mL (≈ 2.25 to 4.5 µM) | MIC [3]: 0.25 to 0.5 µg/mL (≈ 1.13 to 2.25 µM) | MIC (Candida species): 0.25 to 2 µg/mL (≈ 1.13 to 9 µM) | Leishmanicidal effect (reversion after wash and 72 h in fresh media) [1]: did not revert back to their normal morphology and still appeared dead | melting point: 84 to 86 °C | Clearance of intracellular amastigotes in Giemsa-stained micrographs [2]: almost total clearance | IC50 [2]: 21.5 ± 0.96 nM

CC/C(=C\c1ccc([N+](=O)[O-])cc1)[N+](=O)[O-] [Compound 9, 1-nitro-4-((E)-2-nitrobut-1-enyl) benzene]
Leishmanicidal effect (reversion after wash and 72 h in fresh media) [1]: did not revert back to their normal morphology and still appeared dead | melting point: 104 to 106 °C | Clearance of intracellular amastigotes in Giemsa-stained micrographs [2]: almost total clearance | IC50 [2]: 30.5 ± 3.42 nM

COc1ccc(/C=C(\C)[N+](=O)[O-])cc1 [Compound 14, 1-methoxy-4-((E)-2-nitroprop-1-enyl) benzene]
Leishmanicidal effect (reversion after wash and 72 h in fresh media) [1]: did not revert back to their normal morphology and still appeared dead | Clearance of intracellular amastigotes in Giemsa-stained micrographs [2]: almost total clearance | IC50 [2, 4]: 26.4 ± 2.71 nM

From publication PMC5007854, “β-Nitrostyrenes as Potential Anti-leishmanial Agents” (Frontiers in Microbiology, 2016)
